The record followed here is patent US7732604B2, “Triazolopyrazine derivatives” (Pfizer Inc., priority 2006, dated 2010).

T1 sequence (P08581 974-1390 limits assumed): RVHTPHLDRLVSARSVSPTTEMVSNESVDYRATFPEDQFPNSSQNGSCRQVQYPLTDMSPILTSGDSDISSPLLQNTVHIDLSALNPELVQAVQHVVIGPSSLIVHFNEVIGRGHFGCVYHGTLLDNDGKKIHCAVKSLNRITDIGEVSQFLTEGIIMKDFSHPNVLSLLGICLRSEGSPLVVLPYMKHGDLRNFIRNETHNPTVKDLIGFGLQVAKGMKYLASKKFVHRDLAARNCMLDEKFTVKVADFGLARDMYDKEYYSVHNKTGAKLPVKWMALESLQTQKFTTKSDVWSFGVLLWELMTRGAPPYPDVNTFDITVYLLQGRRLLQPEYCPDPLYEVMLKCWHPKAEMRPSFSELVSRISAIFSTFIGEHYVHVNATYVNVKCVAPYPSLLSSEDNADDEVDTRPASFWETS

The experiment addresses T1, HGFR (Homo sapiens, UniProt P08581).
T1 construct: purchased Upstate 14-526
The experiment is described as follows: HGFR continuous-coupled spectrophotometric assay (tyrosine kinase activity on Met-2 substrate peptide). The conditions noted are these: HGFR 50 nM, Met-2 peptide 0.5 mM, ATP 300 μM, 37° C., absorbance 340 nm; read-out: Ki. The experiment is classed as biochemical.
As to `CC(C)(C(=O)O)n1cc(-c2cnc3nnn(Cc4ccc5ncccc5c4)c3n2)cn1` [Example 68, 2-Methyl-2-[4-(3-quinolin-6-ylmethyl-3H-[1,2,3]triazolo[4,5-b]pyrazin-5-yl)-pyrazol-1-yl]-propionic acid], the Ki is 27 nM.

Take `NC(=O)C1CCN(c2cnc3nnn(Cc4ccc5ncccc5c4)c3n2)C1` (centres unmarked) [Example 177, 1-[1-(quinolin-6-yl-methyl)-1H-[1,2,3]tri-azolo[4,5-b]pyra-zin-6-yl]pyrro-lidine-3-carboxamide]: the inhibition constant (Ki) turned out to be 29 nM.

Take `CN(C)c1cnc2nnn(Cc3ccc4ncccc4c3)c2n1` [Example 159, N,N-dimethyl-1-(quino-lin-6-yl-methyl)-1H-[1,2,3]tri-azolo[4,5-b]pyra-zin-6-amine]: the Ki was found to be 13 nM.

With `CC(C)(O)CNc1cnc2nnn(Cc3cc4cccnc4cc3F)c2n1` [Example 172, 1-({1-[(7-fluoro-quinolin-6-yl)meth-yl]-1H-[1,2,3]tri-azolo[4,5-b]pyra-zin-6-yl}ami-no)-2-methyl-propan-2-ol], the Ki amounted to 4 nM.

With `CC(c1ccc2c(c1)OCCO2)n1nnc2ncc(-c3cnn(C)c3)nc21` (centres unmarked) [Example 56, 1-[1-(2,3-Dihydro-benzo[1,4]dioxin-6-yl)-ethyl]-6-(1-methyl-1H-pyrazol-4-yl)-1H-[1,2,3]triazolo[4,5-b]pyrazine], the Ki turned out to be 37 nM.

In the case of `c1cnc2ccc(Cn3nnc4ncc(NC5CCOC5)nc43)cc2c1` (centres unmarked) [Example 145, 1-(quinolin-6-yl-methyl)-N-(tetra-hydrofuran-3-yl)-1H-[1,2,3]tri-azolo[4,5-b]pyra-zin-6-amine], the inhibitory constant (Ki) is 5 nM.

With `CC(O)Cn1cc(-c2cnc3nnn(Cc4ccc5ncccc5c4)c3n2)cn1` (centres unmarked) [Example 59, 1-[4-(3-Quinolin-6-ylmethyl-3H-[1,2,3]triazolo[4,5-b]pyrazin-5-yl)-pyrazol-1-yl]-propan-2-ol], the Ki was 11 nM.

Consider `CCc1nc(CN(C)c2cnc3nnn(Cc4ccc5ncccc5c4)c3n2)no1` [Example 87, N-[(5-ethyl-124-oxa-diazol-3-yl)meth- ]-N-meth-yl-1-(quino-lin-6-yl-methyl)-1H-[1,2,3]tri-azolo[4,5-b]pyra-zin-6-amine], for which the Ki was found to be 54 nM.

`c1cnc2ccc(Cn3nnc4ncc(N5CCNCC5)nc43)cc2c1` [Example 33, 6-((6-(piperazin-1-yl)-1H-[1,2,3]triazolo[4,5-b]pyrazin-1-yl)methyl)quinoline]: the Ki was determined as 10 nM.

Take `OCCn1cc(-c2cnc3nnn(Cc4ccc5ncncc5c4)c3n2)cn1` [Example 219, 2-[4-(3-Quinazolin-6-ylmethyl-3H-[1,2,3]triazolo[4,5-b]pyrazin-5-yl)-pyrazol-1-yl]-ethanol]: the Ki was 61 nM.

`c1cnc2ccc(Cn3nnc4ncc(NC5CCOC5)nc43)cc2c1` (centres unmarked) [Example 123, 1-(quinolin-6-yl-methyl)-N-(tetra-hydrofuran-3-yl)-1H-[1,2,3]tri-azolo[4,5-b]pyra-zin-6-amine]: the inhibition constant Ki stood at 8 nM.

Turning to `CC[C@H](CO)Nc1cnc2nnn(Cc3ccc4ncccc4c3)c2n1` [Example 116, (2R)-2-{[1-(quino-lin-6-yl-methyl)-1H-[1,2,3]tri-azolo[4,5-b]pyra-zin-6-yl]ami-no}butan-1-ol], the Ki was found to be 10 nM.

For `CC1C(=O)N(C)CCN1c1cnc2nnn(Cc3ccc4ncccc4c3)c2n1` (centres unmarked) [Example 88, 13-dimethyl-4-[1-(quino-lin-6-yl-methyl)-1H-[1,2,3]tri-azolo[4,5-b]pyra-zin-6-yl]pipe-razin-2-one], the inhibition constant Ki was 50 nM.

With `CN(C)[C@@H]1CCN(c2cnc3nnn(Cc4ccc5c(c4)CCO5)c3n2)C1` [Example 43, {(R)-1-[3-(2,3-Dihydro-benzofuran-5-ylmethyl)-3H-[1,2,3]triazolo[4,5-b]pyrazin-5-yl]-pyrrolidin-3-yl}-dimethyl-amine], the inhibition constant Ki turned out to be 45 nM.

As to `NC(=O)C1CCN(c2cnc3nnn(Cc4ccc5ncccc5c4)c3n2)C1` (centres unmarked) [Example 176, 1-[1-(quinolin-6-yl-methyl)-1H-[1,2,3]tri-azolo[4,5-b]pyra-zin-6-yl]pyrro-lidine-3-carbox-amide], the Ki came out at 23 nM.

Take `CCCN(CCO)c1cnc2nnn(Cc3ccc4ncccc4c3)c2n1` [Example 84, 2-{propyl[1-(quino-lin-6-yl-methyl)-1H-[1,2,3]tri-azolo[4,5-b]pyra-zin-6-yl]amino}ethanol]: the Ki amounted to 26 nM.

In the case of `FC1CCN(C2CCN(c3cnc4nnn(Cc5ccc6ncccc6c5)c4n3)C2)CC1` (centres unmarked) [Example 147, 6-({6-[3-(4-fluoro-piperidin-1-yl)pyrro-lidin-1-yl]-1H-[1,2,3]tri-azolo[4,5-b]pyra-zin-1-yl}meth-yl)quinoline], the Ki came to 34 nM.

In the case of `CC(N)c1cnc2nnn(Cc3ccc4ncccc4c3)c2n1` (centres unmarked) [Example 183, 1-(3-Quinolin-6-yl-methyl-3H-[1,2,3]tri-azolo[4,5-b]pyra-zin-5-yl)-ethylamine], the inhibition constant Ki was determined as 837 nM.

Turning to `CNc1cnc2nnn(Cc3ccc4ncccc4c3)c2n1` [Example 57, Methyl-(3-quinolin-6-ylmethyl-3H-[1,2,3]triazolo[4,5-b]pyrazin-5-yl)-amine], the Ki was determined as 11 nM.

On to `Cc1c(CNc2cnc3nnn(Cc4ccc5ncccc5c4)c3n2)cnn1C` [Example 128, N-[(15-di-methyl-1H-pyra-zol-4-yl)meth-yl]-1-(quino-lin-6-yl-methyl)-1H-[1,2,3]tri-azolo[4,5-b]pyra-zin-6-amine], for which the Ki is 28 nM.

Consider `CC(O)CNc1cnc2nnn(Cc3ccc4ncccc4c3)c2n1` (centres unmarked) [Example 175, 1-{[1-(quinolin-6-yl-methyl)-1H-[1,2,3]tri-azolo[4,5-b]pyra-zin-6-yl]ami-no}propan-2-ol], for which the Ki came to 8 nM.

For the compound `CC1(C)CN(c2cnc3nnn(Cc4ccc5ncccc5c4)c3n2)C(=O)N1` [Example 190, 4,4-dimethyl-1-[1-(quino-lin-6-yl-methyl)-1H-[1,2,3]tri-azolo[4,5-b]pyra-zin-6-yl]imida-zolidin-2-one], the inhibition constant Ki came to 647 nM.

As to `O=C1CN(c2cnc3nnn(Cc4ccc5ncccc5c4)c3n2)CCN1` [Example 83, 4-[1-(quinolin-6-yl-methyl)-1H-[1,2,3]tri-azolo[4,5-b]py-razin-6-yl]pipe-razin-2-one], the Ki came out at 34 nM.

Consider `OC[C@@H]1C[C@H](F)CN1c1cnc2nnn(Cc3ccc4ncccc4c3)c2n1` [Example 96], for which the Ki was determined as 17 nM.

Regarding `N#CC1CCN(c2cnc3nnn(Cc4ccc5ncccc5c4)c3n2)CC1` [Example 86, 1-[1-(quinolin-6-yl-methyl)-1H-[1,2,3]tri-azolo[4,5-b]py-razin-6-yl]pipe-ridine-4-carbonitrile], the Ki came out at 21 nM.

Regarding `CC(C)(C)OC(=O)NC[C@H]1CCN(c2cnc3nnn(Cc4ccc5ncccc5c4)c3n2)C1` [Example 133, tert-butyl ({(3R)-1-[1-(quino-lin-6-yl-methyl)-1H-[1,2,3]tri-azolo[4,5-b]pyra-zin-6-yl]pyrro-lidin-3-yl}meth-yl)carbamate], the inhibitory constant (Ki) was 51 nM.

Turning to `NC[C@H]1CCN(c2cnc3nnn(Cc4ccc5ncccc5c4)c3n2)C1` [Example 136, 1-[(3R)-1-[1-(quino-lin-6-yl-methyl)-1H-[1,2,3]tri-azolo[4,5-b]pyra-zin-6-yl]pyrro-lidin-3-yl}methanamine], the Ki is 30 nM.

For the compound `FC1(F)CCN(C2CCN(c3cnc4nnn(Cc5ccc6ncccc6c5)c4n3)C2)C1` (centres unmarked) [Example 149, 6-{[6-(3,3-di-fluoro-1,3′-bi-pyrrolidin-1′-yl)-1H-[1,2,3]tri-azolo[4,5-b]pyra-zin-1-yl]meth-yl}quinoline], the Ki was 15 nM.

`OCC1CCN(c2cnc3nnn(Cc4ccc5ncccc5c4)c3n2)CC1` [Example 80, {1-[1-(quinolin-6-yl-methyl)-1H-[1,2,3]tri-azolo[4,5-b]py-razin-6-yl]pipe-ridin-4-yl}methanol]: the Ki worked out at 21 nM.

Regarding `c1cnc2ccc(Cn3nnc4ncc(N5CCC5)nc43)cc2c1` [Example 165, 6-[(6-azetidin-1-yl-1H-[1,2,3]tri-azolo[4,5-b]pyra-zin-1-yl)meth-yl]quinoline], the Ki was 26 nM.

Consider `CNCC1(O)CCN(c2cnc3nnn(Cc4ccc5ncccc5c4)c3n2)C1` (centres unmarked) [Example 155, 3-[(meth-ylamino)meth-yl]-1-[1-(quino-lin-6-yl-methyl)-1H-[1,2,3]tri-azolo[4,5-b]pyra-zin-6-yl]pyrro-lidin-3-ol], for which the inhibition constant Ki is 43 nM.

As for `CC(C)(N)CNc1cnc2nnn(Cc3ccc4ncccc4c3)c2n1` [Example 141, 2-methyl-N~1~-[1-(quino-lin-6-yl-methyl)-1H-[1,2,3]tri-azolo[4,5-b]pyra-zin-6-yl]pro-pane-1,2-diamine], the inhibitory constant (Ki) amounted to 6 nM.

With `CC1(O)CCN(c2cnc3nnn(Cc4ccc5ncccc5c4)c3n2)CC1` [Example 101, 4-methyl-1-[1-(quino-lin-6-yl-methyl)-1H-[1,2,3]tri-azolo[4,5-b]pyra-zin-6-yl]piperidin-4-ol], the inhibition constant (Ki) was 23 nM.

`O[C@@H]1CCN(c2cnc3nnn(Cc4ccc5ncccc5c4)c3n2)C[C@H]1O` [Example 99, (3R,4R)-1-[1-(quino-lin-6-yl-methyl)-1H-[1,2,3]tri-azolo[4,5-b]pyra-zin-6-yl]pipe-ridine-3,4-diol]: the Ki came to 21 nM.

As to `CC(C)(O)CNc1cnc2nnn(Cc3ccc4ncccc4c3)c2n1` [Example 167, 2-methyl-1-{[1-(quino-lin-6-ylmeth-yl)-1H-[1,2,3]tri-azolo[4,5-b]pyra-zin-6-yl]ami-no}propan-2-ol], the inhibitory constant (Ki) is 13 nM.

Turning to `c1cnc2ccc(Cn3nnc4ncc(-c5cnn([C@@H]6CCOC6)c5)nc43)cc2c1` [Example 61, 6-{6-[(R)-1-(Tetrahydro-furan-3-yl)-1H-pyrazol-4-yl]-[1,2,3]triazolo[4,5-b]pyrazin-1-ylmethyl}-quinoline], the Ki was determined as 10 nM.

Consider `CCc1noc(C2CCN(c3cnc4nnn(Cc5ccc6ncccc6c5)c4n3)CC2)n1` [Example 102, 6-({6-[4-(3-eth-yl-124-oxa-diazol-5-yl)pipe-ridin-1-yl]-1H-[1,2,3]tri-azolo[4,5-b]pyra-zin-1-yl}meth-yl)quinoline], for which the inhibitory constant (Ki) was 24 nM.

Consider `CC(c1ccc2c(c1)OCCO2)n1nnc2ncc(Br)nc21` (centres unmarked) [Example 54, 6-Bromo-1-[1-(2,3-dihydro-benzo[1,4]dioxin-6-yl)-ethyl]-1H-[1,2,3]tiazolo[4,5-b]pyrazine], for which the Ki was found to be 42 nM.

In general, Ki refers to the equilibrium dissociation constant of an inhibitor or competing ligand from its target.
